± gives the expanded uncertainty stated by the source.
Test: refractive index (other wavelength) (dimensionless); xn = mol fraction of the nth substance listed
Details: 94.64 kPa, Liquid, Standard Abbe refractometry, x1 = 1

CC(O)CO (stereo not drawn) [1,2-propanediol] + OCCCO
refractive index
Details | Wavelength=404.7 nm | Wavelength=435.8 nm | Wavelength=486.1 nm | Wavelength=546.1 nm | Wavelength=587.6 nm | Wavelength=632.8 nm | Wavelength=644 nm | Wavelength=706.5 nm
293.15 K | 1.445 ± 0.002 | 1.44204 ± 0.002 | 1.43722 ± 0.002 | 1.43406 ± 0.002 | 1.43227 ± 0.002 | 1.43023 ± 0.002 | 1.43008 ± 0.002 | 1.42866 ± 0.002
298.15 K | 1.4429 ± 0.002 | 1.43967 ± 0.002 | 1.43566 ± 0.002 | 1.43245 ± 0.002 | 1.4305 ± 0.002 | 1.429 ± 0.002 | 1.4289 ± 0.002 | 1.42701 ± 0.002
303.15 K | 1.44135 ± 0.002 | 1.43785 ± 0.002 | 1.43417 ± 0.002 | 1.43096 ± 0.002 | 1.42927 ± 0.002 | 1.42774 ± 0.002 | 1.42734 ± 0.002 | 1.42571 ± 0.002
308.15 K | 1.43955 ± 0.002 | 1.43622 ± 0.002 | 1.43239 ± 0.002 | 1.42919 ± 0.002 | 1.42752 ± 0.002 | 1.426 ± 0.002 | 1.42565 ± 0.002 | 1.42397 ± 0.002
313.15 K | 1.43771 ± 0.002 | 1.43437 ± 0.002 | 1.43055 ± 0.002 | 1.42738 ± 0.002 | 1.42572 ± 0.002 | 1.4242 ± 0.002 | 1.42386 ± 0.002 | 1.42219 ± 0.002
318.15 K | 1.43584 ± 0.002 | 1.43252 ± 0.002 | 1.42875 ± 0.002 | 1.42557 ± 0.002 | 1.42392 ± 0.002 | 1.42243 ± 0.002 | 1.42208 ± 0.002 | 1.42043 ± 0.002

Reference: the NIST ThermoML archive (doi:10.1016/j.jct.2016.01.019)
